Data published in US20110269805A1, “METHOD OF TREATING SENSORIMOTOR DISORDERS WITH 4-(1-(2,3-DIMETHYLPHENYL)ETHYL)-1H-IMIDAZOLE-2(3H)-THIONE” (priority 2007, published 2011).
“Also recorded” adds a separate entry of the source.

Legend:
Type in all cases: in vivo
[1] = test system: Male Sprague-Dawley rats; experiment: Pre-pulse inhibition of the startle response (PPI) disrupted by psychostimulants
Protocol: Male Sprague-Dawley rats were treated with Drug 1 (IP) followed 20 minutes later by Drug 2 (IP or SC as indicated in the methods). Ten minutes following administration of Drug 2 (except in the case of apomorphine where animals were immediately tested post-apomorphine), rats were placed in the startle chamber and allowed 5 minutes to acclimate with 65-dB background white noise. The acclimation period was followed by a ˜15 minute test session during which time rats were presented with 40 ms 120 dB startle pulses alone or preceded 100 ms by a pre-pulse 3, 6, or 12 dB above background. These four types of active stimuli were presented in pseudorandom order along with no-stimulation trials to assess baseline activity throughout testing. An average of 20 s separated each trial type. The maximum startle magnitude was measured for every trial type. PPI for each animal was calculated as the percentage startle magnitude to the pre-pulse+pulse or no-stimulation trials relative to the pulse-alone startle magnitude. Amphetamine induced stereotypy. […] Locomotion was separated into “fine movements” (indicative of stereotypy) and “ambulations” (indicative of hyperactivity). Prepulse inhibition. […] Each rat was individually placed in the startle chamber 10 minutes post-phencyclidine or post-amphetamine or post-vehicle. Testing was carried out using the SR-Lab Startle Response system by San Diego Instruments. Each rat was allowed to acclimate for a 5 minute period with a 65-dB background noise continuously present throughout the session. […] A sensor in the chamber recorded the startle responses following all stimuli presented.

[2] = test system: C57B/6 male mice; experiment: Amphetamine-induced stereotypy (open field locomotion); conditions: for AMBULATIONS / FINE MOVEMENTS: 30 μg/kg PO, amphetamine 8 mg/kg; for FINE MOVEMENTS: scored 60 min post-amphetamine
Protocol: C57B/6 male mice were placed in an open field apparatus and allowed to habituate for 15-30 minutes. The compound of the invention (at 30 μg/kg) was administered PO at 0, +15, or +30 minutes relative to amphetamine (8 mg/kg) administration, and locomotor behavior was scored for an additional 60 minutes post-amphetamine. Amphetamine was administered IP. Locomotion was separated into “fine movements” (indicative of stereotypy) and “ambulations” (indicative of hyperactivity). Amphetamine induced stereotypy. […] Locomotion was separated into “fine movements” (indicative of stereotypy) and “ambulations” (indicative of hyperactivity). Prepulse inhibition. Sprague Dawley male rats (˜200 g-300 g) were used (n=8/group). […] Each rat was individually placed in the startle chamber 10 minutes post-phencyclidine or post-amphetamine or post-vehicle. Testing was carried out using the SR-Lab Startle Response system by San Diego Instruments. Each rat was allowed to acclimate for a 5 minute period with a 65-dB background noise continuously present throughout the session. […] A sensor in the chamber recorded the startle responses following all stimuli presented.

[3] = test system: C57B/6 male mice; experiment: as above; conditions: 30 μg/kg PO, time post-amphetamine −15 min, amphetamine 8 mg/kg

Clc1cccc(Cl)c1N=C1NCCN1 [Clonidine, reference compound]
% PPI PP3 ([1]; Clonidine 30 ug/kg as Drug 1, Drug 2 Amphetamine (4 mg/kg, s.c.), pre-pulse 3 dB): 31.0 ± 6.9%
% PPI PP6 ([1]; Clonidine 30 ug/kg as Drug 1, Drug 2 Amphetamine (4 mg/kg, s.c.), pre-pulse 6 dB): 40.7 ± 6.0%
% PPI PP12 ([1]; Clonidine 30 ug/kg as Drug 1, Drug 2 Amphetamine (4 mg/kg, s.c.), pre-pulse 12 dB): 53.5 ± 5.2%
% PPI PP3 ([1]; Clonidine 30 ug/kg as Drug 1, Drug 2 PCP (2 mg/kg, s.c.), pre-pulse 3 dB): 34.5 ± 8.2%
% PPI PP6 ([1]; Clonidine 30 ug/kg as Drug 1, Drug 2 PCP (2 mg/kg, s.c.), pre-pulse 6 dB): 55.1 ± 9.8%
% PPI PP12 ([1]; Clonidine 30 ug/kg as Drug 1, Drug 2 PCP (2 mg/kg, s.c.), pre-pulse 12 dB): 63.7 ± 7.4%
% PPI PP3 ([1]; Clonidine 30 ug/kg as Drug 1, Drug 2 Vehicle, pre-pulse 3 dB above background): 35.2 ± 15.7%
% PPI PP6 ([1]; Clonidine 30 ug/kg as Drug 1, Drug 2 Vehicle, pre-pulse 6 dB above background): 60.8 ± 3.0%^⋄
% PPI PP12 ([1]; Clonidine 30 ug/kg as Drug 1, Drug 2 Vehicle, pre-pulse 12 dB above background): 54.7 ± 8.0%

Cc1cccc(C(C)c2c[nH]c(=S)[nH]2)c1C (stereo not shown) [AGN-203818, 4-(1-(2,3-dimethylphenyl)ethyl)-1H-imidazole-2(3H)-thione]
AMBULATIONS ([2]; time post-amphetamine 0 min): 7337 ± 890.0
FINE MOVEMENTS ([2]; time post-amphetamine 0 min): 762.2 ± 89.4^⋄
AMBULATIONS ([2]; time post-amphetamine 15 min): 5747.3 ± 874.4
FINE MOVEMENTS ([2]; time post-amphetamine 15 min): 1066.5 ± 37.8^⋄
AMBULATIONS ([2]; time post-amphetamine 30 min): 7201.2 ± 1669.4
FINE MOVEMENTS ([2]; time post-amphetamine 30 min): 1297.8 ± 85.3^⋄
oral activity (in words) ([2]; administered PO): orally active
effect on amphetamine-induced stereotypy (in words) ([2]; high-dose psychostimulant administration, listed as compound of the invention): effectively inhibit stereotypy; also recorded: selectively decreased amphetamine-induced stereotypy
AMBULATIONS ([3]; ambulations indicative of hyperactivity): 4756.3 ± 1208.8
FINE MOVEMENTS ([3]; scored 60 min post-amphetamine, fine movements indicative of stereotypy): 904.5 ± 107.0^⋄
% PPI PP3 ([1]; Compound 0.01 mg/kg as Drug 1, Drug 2 PCP (2 mg/kg, s.c.), pre-pulse 3 dB): 20.3 ± 10.6%
% PPI PP6 ([1]; Compound 0.01 mg/kg as Drug 1, Drug 2 PCP (2 mg/kg, s.c.), pre-pulse 6 dB): 21.6 ± 10.7%
% PPI PP12 ([1]; Compound 0.01 mg/kg as Drug 1, Drug 2 PCP (2 mg/kg, s.c.), pre-pulse 12 dB): 51.8 ± 5.6%
% PPI PP3 ([1]; Compound 0.03 mg/kg as Drug 1, Drug 2 PCP (2 mg/kg, s.c.), pre-pulse 3 dB): 30.9 ± 7.4%
% PPI PP6 ([1]; Compound 0.03 mg/kg as Drug 1, Drug 2 PCP (2 mg/kg, s.c.), pre-pulse 6 dB): 46.2 ± 4.2%^⋄
% PPI PP12 ([1]; Compound 0.03 mg/kg as Drug 1, Drug 2 PCP (2 mg/kg, s.c.), pre-pulse 12 dB): 53.6 ± 4.2%
% PPI PP3 ([1]; Compound 0.1 mg/kg as Drug 1, Drug 2 PCP (2 mg/kg, s.c.), pre-pulse 3 dB): 35.8 ± 7.0%
% PPI PP6 ([1]; Compound 0.1 mg/kg as Drug 1, Drug 2 PCP (2 mg/kg, s.c.), pre-pulse 6 dB): 39.6 ± 10.7%
% PPI PP12 ([1]; Compound 0.1 mg/kg as Drug 1, Drug 2 PCP (2 mg/kg, s.c.), pre-pulse 12 dB): 56.2 ± 5.6%^⋄
% PPI PP3 ([1]; Compound 1 mg/kg as Drug 1, Drug 2 Amphetamine (4 mg/kg, s.c.), pre-pulse 3 dB): 49.6 ± 5.8%^⋄
% PPI PP6 ([1]; Compound 1 mg/kg as Drug 1, Drug 2 Amphetamine (4 mg/kg, s.c.), pre-pulse 6 dB): 52.9 ± 4.3%^⋄
% PPI PP12 ([1]; Compound 1 mg/kg as Drug 1, Drug 2 Amphetamine (4 mg/kg, s.c.), pre-pulse 12 dB): 65.7 ± 4.7%^⋄
% PPI PP3 ([1]; Compound 1 mg/kg as Drug 1, Drug 2 PCP (2 mg/kg, s.c.), pre-pulse 3 dB): 48.8 ± 8.2%^⋄
% PPI PP6 ([1]; Compound 1 mg/kg as Drug 1, Drug 2 PCP (2 mg/kg, s.c.), pre-pulse 6 dB): 45.0 ± 12.7%
% PPI PP3 ([1]; Compound as Drug 1 (dose not given), Drug 2 Vehicle, pre-pulse 3 dB): 60.4 ± 4.8%^⋄
% PPI PP6 ([1]; Compound as Drug 1 (dose not given), Drug 2 Vehicle, pre-pulse 6 dB): 59.8 ± 2.2%^⋄
% PPI PP12 ([1]; Compound as Drug 1 (dose not given), Drug 2 Vehicle, pre-pulse 12 dB): 75.5 ± 2.9%^⋄*
effect on PPI deficits induced by amphetamine or phencyclidine (in words) ([1]; deficits induced by amphetamine or phencyclidine): significantly rescue deficits in sensorimotor integration
